ChEMBL document CHEMBL2034881, “Inverse Virtual Screening allows the discovery of the biological activity of natural compounds” (Bioorg Med Chem, 2012)

Columns and labels:
[1] = molecular target: T1, 3-phosphoinositide-dependent protein kinase 1 (Homo sapiens, UniProt O15530); test: Inhibition of human PDK1 assessed as inhibition of [33P] incorporation into substrate after 60 mins by scintillation counting
T1 sequence (O15530 whole entry): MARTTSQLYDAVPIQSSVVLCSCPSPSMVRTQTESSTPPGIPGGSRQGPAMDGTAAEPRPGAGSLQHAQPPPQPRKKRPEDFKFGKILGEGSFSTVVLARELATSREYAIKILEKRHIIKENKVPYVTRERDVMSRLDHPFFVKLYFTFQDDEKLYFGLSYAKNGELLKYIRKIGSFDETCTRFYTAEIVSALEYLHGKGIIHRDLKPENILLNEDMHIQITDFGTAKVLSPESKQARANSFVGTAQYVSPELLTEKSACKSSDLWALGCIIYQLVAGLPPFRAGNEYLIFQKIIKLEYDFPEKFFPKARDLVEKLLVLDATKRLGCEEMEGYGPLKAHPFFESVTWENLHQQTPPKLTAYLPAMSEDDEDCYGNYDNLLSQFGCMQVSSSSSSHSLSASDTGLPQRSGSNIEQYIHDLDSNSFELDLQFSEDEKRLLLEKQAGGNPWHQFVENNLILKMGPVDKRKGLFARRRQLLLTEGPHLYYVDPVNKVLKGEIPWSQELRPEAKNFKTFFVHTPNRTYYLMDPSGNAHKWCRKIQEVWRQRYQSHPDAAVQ

[2] = molecular target: Protein kinase C alpha type (Homo sapiens, UniProt P17252); test: Inhibition of human PKC alpha assessed as inhibition of [33P] incorporation into substrate after 60 mins by scintillation counting
[3] = molecular target: Protein kinase C theta type (Homo sapiens, UniProt Q04759); test: Inhibition of human PKC theta assessed as inhibition of [33P] incorporation into substrate after 60 mins by scintillation counting
Chain of Protein kinase C theta type (Q04759 whole entry): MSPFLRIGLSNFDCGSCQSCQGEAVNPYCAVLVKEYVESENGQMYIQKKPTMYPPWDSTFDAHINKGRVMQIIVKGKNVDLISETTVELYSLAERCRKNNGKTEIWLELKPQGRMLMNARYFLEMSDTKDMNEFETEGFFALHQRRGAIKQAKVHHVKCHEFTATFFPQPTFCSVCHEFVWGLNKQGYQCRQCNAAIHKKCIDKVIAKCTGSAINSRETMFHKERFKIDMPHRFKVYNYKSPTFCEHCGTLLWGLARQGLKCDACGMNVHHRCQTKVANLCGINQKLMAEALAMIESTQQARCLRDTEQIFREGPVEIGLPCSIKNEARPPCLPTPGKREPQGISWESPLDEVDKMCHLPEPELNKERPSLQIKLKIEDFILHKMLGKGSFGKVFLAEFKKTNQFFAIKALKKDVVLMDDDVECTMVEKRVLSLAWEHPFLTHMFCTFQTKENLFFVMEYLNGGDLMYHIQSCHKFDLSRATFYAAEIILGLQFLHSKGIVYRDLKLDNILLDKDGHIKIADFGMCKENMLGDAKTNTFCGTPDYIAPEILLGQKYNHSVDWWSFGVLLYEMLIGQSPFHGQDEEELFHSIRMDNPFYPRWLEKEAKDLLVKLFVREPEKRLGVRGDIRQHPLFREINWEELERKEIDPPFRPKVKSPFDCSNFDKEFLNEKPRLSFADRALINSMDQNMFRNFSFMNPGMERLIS

Row | IC50 [1] [µM] | IC50 [2] [µM] | IC50 [3] [µM] | Compound
1 | 6.6 | > 100 | > 100 | COc1cc(O)c(CC=C(C)C)c(O)c1C(=O)/C=C/c1ccc(O)cc1 [XANTHOHUMOL]
2 | 58.7 | 45.3 | 31.6 | COc1cc(O)c(CC=C(C)C)c2c1C(=O)CC(c1ccc(O)cc1)O2 (stereo unspecified) [ISOXANTHOHUMOL]
